Drawing on patent US20250145585A1, “HETEROCYCLIC INHIBITORS OF IGF-1R FOR TREATMENT OF DISEASE” (HORIZON THERAPEUTICS IRELAND DAC, priority 2023, published 2025), this text covers IC50 for 19 compounds.

Structures are written as SMILES.

For experiment [1], the target named is T1, IGF-1R (Homo sapiens, UniProt P08069).
T1 construct: expressed in transfected cells
As to the kind of experiment: Example B-1: IGF-1R Assay (PC3 cells stimulated with IGF1, AlphaLISA on cell lysates). Format: cell-based. The settings on record: compound two hours, IGF1 200 ng/mL for 30 min, read-out: IC50, Biological Activity against IGF-1R (Table B1). The method, boiled down: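 IC50 from AlphaLISA read-out of lysed PC3 cells, percent inhibition normalized between vehicle and EC80 controls. Before lysis, cells had 2 h serum-free starvation, 2 h exposure to compound in 3× dilution series, and 30 min IGF1 stimulation at final 200 ng/mL.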
Background: Bead proximity is the source of the signal in Alpha formats.

The target in experiment [2] is T1, IGF-1R. As to the kind of experiment: Example B-2: IGF-1R Assay (PathHunter cell lines, EC80 agonist challenge, chemiluminescent detection). The class given is cell-based. Conditions: PathHunter cells, compound 60 minutes at 37° C., EC80 agonist 3 hours; read-out: IC50, Biological Activity against IGF-1R (Table B2). An outline of the steps: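 Read-out is PathHunter chemiluminescence, developed for 1 h at room temperature after a 3 h room-temperature EC80 agonist challenge that followed 60 min compound pre-treatment at 37° C (1% vehicle). IC50 comes from % inhibition normalized to EC80 and vehicle controls.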

T1 sequence (P08069 31-1367): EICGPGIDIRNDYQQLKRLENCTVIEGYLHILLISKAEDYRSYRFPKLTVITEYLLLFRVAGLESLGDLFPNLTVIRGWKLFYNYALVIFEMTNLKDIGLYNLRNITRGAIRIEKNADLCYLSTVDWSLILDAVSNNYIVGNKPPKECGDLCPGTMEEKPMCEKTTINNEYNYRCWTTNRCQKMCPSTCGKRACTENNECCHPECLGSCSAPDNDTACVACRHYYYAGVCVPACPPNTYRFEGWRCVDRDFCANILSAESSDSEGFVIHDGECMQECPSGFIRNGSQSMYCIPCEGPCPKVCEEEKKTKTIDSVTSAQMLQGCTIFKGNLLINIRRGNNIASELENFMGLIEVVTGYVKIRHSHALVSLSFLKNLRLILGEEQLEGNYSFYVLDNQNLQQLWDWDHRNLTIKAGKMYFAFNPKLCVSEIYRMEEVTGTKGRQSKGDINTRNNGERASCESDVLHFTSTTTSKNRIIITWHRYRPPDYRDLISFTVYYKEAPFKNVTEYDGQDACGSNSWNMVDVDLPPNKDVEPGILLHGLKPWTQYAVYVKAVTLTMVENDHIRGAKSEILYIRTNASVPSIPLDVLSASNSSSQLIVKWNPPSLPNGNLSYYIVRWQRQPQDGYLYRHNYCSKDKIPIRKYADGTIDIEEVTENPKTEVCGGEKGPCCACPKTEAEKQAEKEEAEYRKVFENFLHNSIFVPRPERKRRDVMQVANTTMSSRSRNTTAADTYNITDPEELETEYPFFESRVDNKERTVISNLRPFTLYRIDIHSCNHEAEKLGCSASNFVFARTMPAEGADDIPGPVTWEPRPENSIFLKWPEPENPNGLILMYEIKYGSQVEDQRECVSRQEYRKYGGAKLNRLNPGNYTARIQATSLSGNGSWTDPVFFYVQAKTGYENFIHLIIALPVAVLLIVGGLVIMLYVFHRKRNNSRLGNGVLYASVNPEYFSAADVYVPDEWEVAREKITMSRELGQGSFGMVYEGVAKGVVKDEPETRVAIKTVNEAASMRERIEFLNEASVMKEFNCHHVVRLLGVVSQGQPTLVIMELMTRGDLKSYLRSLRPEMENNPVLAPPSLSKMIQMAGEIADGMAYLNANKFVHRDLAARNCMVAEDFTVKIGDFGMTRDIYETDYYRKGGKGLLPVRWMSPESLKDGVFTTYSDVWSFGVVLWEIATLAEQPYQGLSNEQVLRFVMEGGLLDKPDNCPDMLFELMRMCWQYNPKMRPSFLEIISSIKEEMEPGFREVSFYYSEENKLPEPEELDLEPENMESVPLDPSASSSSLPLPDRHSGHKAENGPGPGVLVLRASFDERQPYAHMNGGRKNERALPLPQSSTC

As to `CC(C)Nc1cc(CN2C(=O)N(c3ccc4c(c3)C(=O)N(C)C4(C)C)C(=O)C2(C)C)ccn1` [Compound 186, 1-((2-(isopropylamino)pyridin-4-yl)methyl)-5,5-dimethyl-3-(1,1,2-trimethyl-3-oxoisoindolin-5-yl)imidazolidine-2,4-dione], the IC50 in experiment [1] and in experiment [2] was 2000 to 10000 nM in each case.
On to `CC(C)Nc1cc(CN2C(=O)N(c3ccc4c(c3)NC(=O)C43CC3)C(=O)C2(C)C)ccn1` [Compound 187, 1-((2-(isopropylamino)pyridin-4-yl)methyl)-5,5-dimethyl-3-(2′-oxospiro[cyclopropane-1,3′-indolin]-6′-yl)imidazolidine-2,4-dione], for which the half-inhibitory concentration (IC50) in experiment [1] and in experiment [2] was 2000 to 10000 nM throughout.
For the compound `CC(C)Nc1cc(CN2C(=O)N(c3ccc4c(c3)N(C)CC4(C)C)C(=O)C2(C)C)ccn1` [Compound 188, 1-((2-(isopropylamino)pyridin-4-yl)methyl)-5,5-dimethyl-3-(1,3,3-trimethylindolin-6-yl)imidazolidine-2,4-dione], the half-inhibitory concentration (IC50) in experiment [1] and in experiment [2] was no more than 500 nM throughout.
For the compound `CC(C)Nc1cc(CN2C(=O)N(c3ccc4c(c3)OCC4(C)C)C(=O)C2(C)C)ccn1` [Compound 189, 3-(3,3-dimethyl-2,3-dihydrobenzofuran-6-yl)-1-((2-(isopropylamino)pyridin-4-yl)methyl)-5,5-dimethylimidazolidine-2,4-dione], the IC50 in experiment [1] and in experiment [2] was no more than 500 nM in each case.
In the case of `CC(C)Nc1cc(CN2C(=O)N(c3ccc4c(c3)S(=O)(=O)CC4(C)C)C(=O)C2(C)C)ccn1` [Compound 190, 3-(3,3-dimethyl-1,1-dioxido-2,3-dihydrobenzo[b]thiophen-6-yl)-1-((2-(isopropylamino)pyridin-4-yl)methyl)-5,5-dimethylimidazolidine-2,4-dione], the half-maximal inhibitory concentration (IC50) in experiment [1] and in experiment [2] was 2000 to 10000 nM in each case.
Consider `CC(C)Nc1cc(CN2C(=O)N(c3ccc4c(c3)N(C)CC43CCC3)C(=O)C2(C)C)ccn1` [Compound 191, 1-((2-(isopropylamino)pyridin-4-yl)methyl)-5,5-dimethyl-3-(1′-methylspiro[cyclobutane-1,3′-indolin]-6′-yl)imidazolidine-2,4-dione], for which the half-maximal inhibitory concentration (IC50) in experiment [1] and in experiment [2] was no more than 500 nM throughout.
In the case of `Cn1nc(C(F)(F)F)c2ccc(N3C(=O)N(Cc4ccnc(N)c4)C(C)(C)C3=O)cc21` [Compound 255, 1-((2-aminopyridin-4-yl)methyl)-5,5-dimethyl-3-(1-methyl-3-(trifluoromethyl)-1H-indazol-6-yl)imidazolidine-2,4-dione], the IC50 (in general, the concentration that gives 50% inhibition) in experiment [1] was in the range of 500 to 2000 nM; in experiment [2] it was 2000 to 10000 nM.
For `CC(C)Nc1cc(CN2C(=O)N(c3ccc4c(C(F)(F)F)nn(C)c4c3)C(=O)C2(C)C)ccn1` [Compound 256, 1-((2-(isopropylamino)pyridin-4-yl)methyl)-5,5-dimethyl-3-(1-methyl-3-(trifluoromethyl)-1H-indazol-6-yl)imidazolidine-2,4-dione], the figures for the half-maximal inhibitory concentration (IC50) in experiment [1] and in experiment [2] were 500 to 2000 nM and 2000 to 10000 nM, respectively.
Regarding `CC(C)Nc1cc(CN2C(=O)N(c3ccc4c(C5CC5)n[nH]c4c3)C(=O)C2(C)C)ccn1` [Compound 258, 3-(3-cyclopropyl-1H-indazol-6-yl)-1-((2-(isopropylamino)pyridin-4-yl)methyl)-5,5-dimethylimidazolidine-2,4-dione], the IC50 in experiment [1] and in experiment [2] was 2000 to 10000 nM in each case.
Take `CC(C)(C)c1ccc(N2C(=O)N(Cc3ccnc(NC4CCCCC4)c3)C(C)(C)C2=O)cc1` [Compound 264, 3-(4-(tert-butyl)phenyl)-1-((2-(cyclohexylamino)pyridin-4-yl)methyl)-5,5-dimethylimidazolidine-2,4-dione]: the figures for the concentration for half-maximal inhibition (IC50) in experiment [1] and in experiment [2] were no more than 500 nM and 500 to 2000 nM, respectively.
On to `CC(C)Nc1cc(CN2C(=O)N(c3ccc(C(C)(C)C)nc3)C(=O)C2(C)C)ccn1` [Compound 267, 3-(6-(tert-butyl)pyridin-3-yl)-1-((2-(isopropylamino)pyridin-4-yl)methyl)-5,5-dimethylimidazolidine-2,4-dione], for which the IC50 in experiment [1] and in experiment [2] was no more than 500 nM each time.
For `CC(C)Nc1cc(CN2C(=O)N(c3ccc(C(C)(C)C)cn3)C(=O)C2(C)C)ccn1` [Compound 277, 3-(5-(tert-butyl)pyridin-2-yl)-1-((2-(isopropylamino)pyridin-4-yl)methyl)-5,5-dimethylimidazolidine-2,4-dione], the half-inhibitory concentration (IC50) in experiment [1] and in experiment [2] was no more than 500 nM throughout.
As to `C[C@@H](CC#N)Nc1cc(CN2C(=O)N(c3ccc(C(C)(C)C)cc3)C(=O)C2(C)C)ccn1` [Compound 278, (S)-3-((4-((3-(4-(tert-butyl)phenyl)-5,5-dimethyl-2,4-dioxoimidazolidin-1-yl)methyl)pyridin-2-yl)amino)butanenitrile], the results for the IC50 in experiment [1] and in experiment [2] were no more than 500 nM and 500 to 2000 nM, respectively.
`CC(C)Nc1cc(CN2C(=O)N(c3ccc(SC(F)(F)F)cc3)C(=O)[C@@H]2CO)ccn1` [Compound 298, (S)-5-(hydroxymethyl)-1-((2-(isopropylamino)pyridin-4-yl)methyl)-3-(4-((trifluoromethyl)thio)phenyl)imidazolidine-2,4-dione]: the IC50 in experiment [1] and in experiment [2] was greater than 10000 nM throughout.
`CC(C)Nc1cc(CN2C(=O)N(c3ccc(SC(F)(F)F)cc3)C(=O)C2(C)CO)ccn1` (centres unmarked) [Compound 299, 5-(hydroxymethyl)-1-((2-(isopropylamino)pyridin-4-yl)methyl)-5-methyl-3-(4-((trifluoromethyl)thio)phenyl)imidazolidine-2,4-dione]: the IC50 in experiment [1] and in experiment [2] was 2000 to 10000 nM throughout.
`CC1(C)C(=O)N(c2ccc(SC(F)(F)F)cc2)C(=O)N1Cc1ccnc(NC2CCOCC2)c1` [Compound 310, 5,5-dimethyl-1-((2-((tetrahydro-2H-pyran-4-yl)amino)pyridin-4-yl)methyl)-3-(4-((trifluoromethyl)thio)phenyl)imidazolidine-2,4-dione]: the IC50 in experiment [1] and in experiment [2] was no more than 500 nM in each case.
In the case of `CC1(C)C(=O)N(c2ccc(S(=O)(=O)C(F)(F)F)cc2)C(=O)N1Cc1ccnc(NC2CCOCC2)c1` [Compound 316, 5,5-dimethyl-1-((2-((tetrahydro-2H-pyran-4-yl)amino)pyridin-4-yl)methyl)-3-(4-((trifluoromethyl)sulfonyl)phenyl) imidazolidine-2,4-dione], the IC50 in experiment [1] and in experiment [2] was no more than 500 nM throughout.
Regarding `CC1(C)C(=O)N(c2ccc(S(=O)(=O)C(F)(F)F)cc2)C(=O)N1Cc1ccnc(NCC(F)F)c1` [Compound 317, 1-((2-((2,2-difluoroethyl)amino)pyridin-4-yl)methyl)-5,5-dimethyl-3-(4-((trifluoromethyl)sulfonyl)phenyl) imidazolidine-2,4-dione], the IC50 in experiment [1] and in experiment [2] was no more than 500 nM throughout.
For the compound `COC[C@@H](C)Nc1cc(CN2C(=O)N(c3ccc(S(=O)(=O)C(F)(F)F)cc3)C(=O)C2(C)C)ccn1` [Compound 318, (R)-1-((2-((1-methoxypropan-2-yl)amino)pyridin-4-yl)methyl)-5,5-dimethyl-3-(4-((trifluoromethyl)sulfonyl)phenyl) imidazolidine-2,4-dione], the IC50 in experiment [1] and in experiment [2] was no more than 500 nM throughout.
